Reference: PubChem BioAssay (NCI)
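Cells were grown in 96-well plates and exposed to each compound for 48 hours at five concentrations; endpoints were interpolated linearly between bracketing concentrations, or set to the highest concentration if not reached. TGI: concentration producing complete growth inhibition.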

Tests used:
Test in all cases: DTP human tumour cell line panel, 48 h
[1] = system: M14 melanoma
[2] = system: IGROV1 ovarian
[3] = system: MCF7 breast
[4] = system: MOLT-4 leukemia
[5] = system: UO-31 renal
[6] = system: MDA-N
[7] = system: SF-268 CNS
[8] = system: A549 NSCLC
[9] = system: EKVX NSCLC
[10] = system: SF-295 CNS
[11] = system: 786-0 renal
[12] = system: SK-MEL-5 melanoma
[13] = system: HOP-62 NSCLC
[14] = system: T-47D breast
[15] = system: SNB-75 CNS
[16] = system: SNB-19 CNS
[17] = system: RXF 393 renal
[18] = system: U251 CNS
[19] = system: BT-549 breast
[20] = system: NCI-H23 lung
[21] = system: CCRF-CEM leukemia
[22] = system: SF-539 CNS
[23] = system: TK-10 renal
[24] = system: DU-145 prostate
[25] = system: HS 578T breast
[26] = system: SW-620 colon
[27] = system: OVCAR-8 ovarian
[28] = system: SN12C renal
[29] = system: MALME-3M melanoma
[30] = system: SK-MEL-28 melanoma
[31] = system: UACC-62 melanoma
[32] = system: HCT-116 colon
[33] = system: MDA-MB-435
[34] = system: OVCAR-5 ovarian
[35] = system: HOP-92 NSCLC
[36] = system: K-562 leukemia
[37] = system: A498 renal
[38] = system: NCI-H226 lung
[39] = system: SK-OV-3 ovarian
[40] = system: NCI-H460 lung
[41] = system: HCC-2998 colon
[42] = system: MDA-MB-231 breast
[43] = system: OVCAR-4 ovarian
[44] = system: OVCAR-3 ovarian
[45] = system: HL-60(TB) leukemia
[46] = system: CAKI-1 renal
[47] = system: ACHN renal
[48] = system: COLO 205 colon
[49] = system: NCI-H522 lung
[50] = system: SR leukemia
[51] = system: HT29 colon
[52] = system: UACC-257 melanoma
[53] = system: PC-3 prostate
[54] = system: KM12 colon
[55] = system: SK-MEL-2 melanoma
[56] = system: LOX IMVI melanoma
[57] = system: HCT-15 colon
[58] = system: RPMI-8226 leukemia
[59] = system: NCI/ADR-RES ovarian

Compound `CCCN1CCC(=O)N(CCC(F)(F)C(F)(F)C(F)(F)C(F)(F)C(F)(F)C(F)(F)F)C1=S` has a TGI [1] of over 100 µM, a TGI [2] of over 100 µM and a TGI [3] of over 100 µM. It also gave a TGI [4] of over 100 µM, a TGI [5] of over 100 µM and a TGI [6] of over 100 µM. For the same compound, the TGI [7] was over 100 µM, the TGI [8] was over 100 µM and the TGI [9] was over 100 µM. For the same compound, the TGI [10] was over 100 µM, the TGI [11] was over 100 µM and the TGI [12] was over 100 µM. For the same compound, the TGI [13] was over 100 µM, the TGI [14] was over 100 µM and the TGI [15] was over 100 µM. The TGI [16] was over 100 µM, the TGI [17] was over 100 µM and the TGI [18] was over 100 µM. For the same compound, the TGI [19] was over 100 µM, the TGI [20] was over 100 µM and the TGI [21] was over 100 µM. It also gave a TGI [22] of over 100 µM, a TGI [23] of over 100 µM and a TGI [24] of over 100 µM. It also gave a TGI [25] of over 100 µM, a TGI [26] of over 100 µM and a TGI [27] of over 100 µM. The TGI [28] was over 100 µM, the TGI [29] was over 100 µM and the TGI [30] was over 100 µM. It also gave a TGI [31] of over 100 µM, a TGI [32] of over 100 µM and a TGI [33] of over 100 µM. It also gave a TGI [34] of over 100 µM, a TGI [35] of over 100 µM and a TGI [36] of over 100 µM. It also gave a TGI [37] of over 100 µM, a TGI [38] of over 100 µM and a TGI [39] of over 100 µM. The TGI [40] was over 100 µM, the TGI [41] was over 100 µM and the TGI [42] was over 100 µM. For the same compound, the TGI [43] was over 100 µM, the TGI [44] was over 100 µM and the TGI [45] was over 100 µM. For the same compound, the TGI [46] was over 100 µM, the TGI [47] was over 100 µM and the TGI [48] was over 100 µM. It also gave a TGI [49] of over 100 µM, a TGI [50] of over 100 µM and a TGI [51] of over 100 µM. The TGI [52] was over 100 µM, the TGI [53] was over 100 µM and the TGI [54] was over 100 µM.

`CC(=O)CSCc1ccccn1` gave a TGI [1] of over 100 µM, a TGI [2] of over 100 µM and a TGI [4] of 61.4 µM. For the same compound, the TGI [55] was 71.4 µM, the TGI [5] was over 100 µM and the TGI [6] was over 100 µM. The TGI [7] was over 100 µM, the TGI [8] was over 100 µM and the TGI [9] was over 100 µM. It also gave a TGI [10] of over 100 µM, a TGI [11] of over 100 µM and a TGI [12] of over 100 µM. The TGI [13] was over 100 µM, the TGI [14] was over 100 µM and the TGI [15] was 71.9 µM. It also gave a TGI [16] of over 100 µM, a TGI [17] of over 100 µM and a TGI [18] of over 100 µM. For the same compound, the TGI [19] was over 100 µM, the TGI [20] was over 100 µM and the TGI [21] was 90.7 µM. The TGI [56] was over 100 µM, the TGI [22] was 67.9 µM and the TGI [23] was over 100 µM. For the same compound, the TGI [24] was over 100 µM, the TGI [25] was 7.23 µM and the TGI [57] was over 100 µM. For the same compound, the TGI [26] was over 100 µM, the TGI [27] was over 100 µM and the TGI [28] was over 100 µM. It also gave a TGI [29] of 9.99 µM, a TGI [30] of over 100 µM and a TGI [31] of over 100 µM. The TGI [58] was 36.8 µM, the TGI [32] was over 100 µM and the TGI [33] was over 100 µM. The TGI [34] was over 100 µM, the TGI [35] was over 100 µM and the TGI [36] was 82.3 µM. The TGI [37] was over 100 µM, the TGI [38] was 43.7 µM and the TGI [39] was over 100 µM. For the same compound, the TGI [40] was over 100 µM, the TGI [41] was over 100 µM and the TGI [42] was over 100 µM. It also gave a TGI [43] of over 100 µM, a TGI [44] of over 100 µM and a TGI [45] of 64.5 µM. It also gave a TGI [59] of over 100 µM, a TGI [47] of over 100 µM and a TGI [48] of over 100 µM. It also gave a TGI [49] of 45.3 µM, a TGI [50] of 56.1 µM and a TGI [51] of over 100 µM. It also gave a TGI [52] of over 100 µM, a TGI [53] of over 100 µM and a TGI [54] of over 100 µM.
